Key:
Assay in all cases: relative viability (nuclei count vs DMSO), 5 days (fraction); higher = more cells survive
HARA = tested on: HARA
In short: (§1)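 Cells from lung cancer lines were seeded into 1536-well plates and, one day later, dosed by pin tool. Treatments were either a single drug or a fixed dose of an anchor drug with five library-drug doses (not always all listed) in √10 steps. After 5 days, nuclei were stained in a one-step fixation (final 0.05% Triton X-100, 1% formaldehyde, 1 ug/ml Hoechst) and counted on 4× images, and relative viability is the treated-to-vehicle nuclei ratio, as the median of duplicate plates.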

H3255 = tested on: H3255
In short: as §1

LC-2-ad = tested on: LC-2-ad
In short: as §1

PC-3 [JPC-3] = tested on: PC-3 [JPC-3]
In short: as §1

NCI-H441 = tested on: NCI-H441
In short: as §1

NCI-H460 = tested on: NCI-H460
In short: as §1

HCC-15 = tested on: HCC-15
In short: as §1

NCI-H1437 = tested on: NCI-H1437
In short: as §1

SK-LU-1 = tested on: SK-LU-1
In short: as §1

LCLC-97TM1 = tested on: LCLC-97TM1
In short: as §1

LU99A = tested on: LU99A
In short: as §1

NCI-H1915 = tested on: NCI-H1915
In short: as §1

NCI-H661 = tested on: NCI-H661
In short: as §1

NCI-H2126 = tested on: NCI-H2126
In short: as §1

EMC-BAC-2 = tested on: EMC-BAC-2
In short: as §1

ChaGo-K-1 = tested on: ChaGo-K-1
In short: as §1

NCI-H1792 = tested on: NCI-H1792
In short: as §1

NCI-H1793 = tested on: NCI-H1793
In short: as §1

HCC-827 = tested on: HCC-827
In short: as §1

NCI-H1944 = tested on: NCI-H1944
In short: as §1

NCI-H322M = tested on: NCI-H322M
In short: as §1

NCI-H23 = tested on: NCI-H23
In short: as §1

EKVX = tested on: EKVX
In short: as §1

Cc1cnc(-c2cnc(NCCNc3ccc(C#N)cn3)nc2-c2ccc(Cl)cc2Cl)[nH]1 + CC(=O)Nc1cccc(-n2c(=O)n(C3CC3)c(=O)c3c(Nc4ccc(I)cc4F)n(C)c(=O)c(C)c32)c1 [Trametinib] (partner 0.02 µM)
relative viability (HARA; first compound 0.08 µM): 0.746 | relative viability (HARA; first compound 0.253 µM): 0.68 | relative viability (HARA; first compound 0.8 µM): 0.623 | relative viability (HARA; first compound 2.53 µM): 0.708 | relative viability (H3255; first compound 0.08 µM): 0.794 | relative viability (H3255; first compound 0.253 µM): 0.583 | relative viability (H3255; first compound 0.8 µM): 0.663 | relative viability (H3255; first compound 2.53 µM): 0.668 | relative viability (LC-2-ad; first compound 0.08 µM): 0.998 | relative viability (LC-2-ad; first compound 0.8 µM): 0.953 | relative viability (LC-2-ad; first compound 2.53 µM): 0.863 | relative viability (PC-3 [JPC-3]; first compound 0.08 µM): 0.75 | relative viability (PC-3 [JPC-3]; first compound 0.253 µM): 0.646 | relative viability (PC-3 [JPC-3]; first compound 0.8 µM): 0.774 | relative viability (PC-3 [JPC-3]; first compound 2.53 µM): 0.703 | relative viability (NCI-H441; first compound 0.08 µM): 0.561 | relative viability (NCI-H441; first compound 0.8 µM): 0.443 | relative viability (NCI-H441; first compound 2.53 µM): 0.372 | relative viability (NCI-H460; first compound 0.08 µM): 0.225 | relative viability (NCI-H460; first compound 0.253 µM): 0.121 | relative viability (NCI-H460; first compound 0.8 µM): 0.107 | relative viability (NCI-H460; first compound 2.53 µM): 0.195 | relative viability (HCC-15; first compound 0.08 µM): 0.449 | relative viability (HCC-15; first compound 0.253 µM): 0.391 | relative viability (HCC-15; first compound 0.8 µM): 0.383 | relative viability (HCC-15; first compound 2.53 µM): 0.422 | relative viability (NCI-H1437; first compound 0.08 µM): 0.677 | relative viability (NCI-H1437; first compound 0.253 µM): 0.492 | relative viability (NCI-H1437; first compound 0.8 µM): 0.489 | relative viability (NCI-H1437; first compound 2.53 µM): 0.381 | relative viability (SK-LU-1; first compound 0.08 µM): 0.489 | relative viability (SK-LU-1; first compound 0.253 µM): 0.61 | relative viability (SK-LU-1; first compound 0.8 µM): 0.563 | relative viability (SK-LU-1; first compound 2.53 µM): 0.707 | relative viability (LCLC-97TM1; first compound 0.08 µM): 0.201 | relative viability (LCLC-97TM1; first compound 0.253 µM): 0.193 | relative viability (LCLC-97TM1; first compound 0.8 µM): 0.18 | relative viability (LCLC-97TM1; first compound 2.53 µM): 0.214 | relative viability (LU99A; first compound 0.08 µM): 0.549 | relative viability (LU99A; first compound 0.253 µM): 0.556 | relative viability (LU99A; first compound 0.8 µM): 0.53 | relative viability (LU99A; first compound 2.53 µM): 0.534 | relative viability (NCI-H1915; first compound 0.08 µM): 0.308 | relative viability (NCI-H1915; first compound 0.8 µM): 0.29 | relative viability (NCI-H1915; first compound 2.53 µM): 0.299 | relative viability (NCI-H661; first compound 0.08 µM): 0.606 | relative viability (NCI-H661; first compound 0.253 µM): 0.537 | relative viability (NCI-H661; first compound 0.8 µM): 0.68 | relative viability (NCI-H661; first compound 2.53 µM): 0.681 | relative viability (NCI-H2126; first compound 0.08 µM): 0.58 | relative viability (NCI-H2126; first compound 0.253 µM): 0.546 | relative viability (NCI-H2126; first compound 0.8 µM): 0.564 | relative viability (NCI-H2126; first compound 2.53 µM): 0.546 | relative viability (EMC-BAC-2; first compound 0.08 µM): 1.06 | relative viability (EMC-BAC-2; first compound 0.253 µM): 0.976 | relative viability (EMC-BAC-2; first compound 0.8 µM): 0.853 | relative viability (EMC-BAC-2; first compound 2.53 µM): 0.887 | relative viability (ChaGo-K-1; first compound 0.08 µM): 0.891 | relative viability (ChaGo-K-1; first compound 0.253 µM): 0.761 | relative viability (ChaGo-K-1; first compound 0.8 µM): 0.844 | relative viability (ChaGo-K-1; first compound 2.53 µM): 0.824 | relative viability (NCI-H1792; first compound 0.08 µM): 0.525 | relative viability (NCI-H1792; first compound 0.253 µM): 0.437 | relative viability (NCI-H1792; first compound 0.8 µM): 0.472 | relative viability (NCI-H1792; first compound 2.53 µM): 0.349 | relative viability (NCI-H1793; first compound 0.08 µM): 0.462 | relative viability (NCI-H1793; first compound 0.253 µM): 0.45 | relative viability (NCI-H1793; first compound 0.8 µM): 0.422 | relative viability (NCI-H1793; first compound 2.53 µM): 0.403 | relative viability (HCC-827; first compound 0.08 µM): 0.597 | relative viability (HCC-827; first compound 0.253 µM): 0.473 | relative viability (HCC-827; first compound 0.8 µM): 0.522 | relative viability (HCC-827; first compound 2.53 µM): 0.434 | relative viability (NCI-H1944; first compound 0.08 µM): 0.423 | relative viability (NCI-H1944; first compound 0.8 µM): 0.463 | relative viability (NCI-H1944; first compound 2.53 µM): 0.371 | relative viability (NCI-H322M; first compound 0.08 µM): 0.563 | relative viability (NCI-H322M; first compound 0.253 µM): 0.558 | relative viability (NCI-H322M; first compound 0.8 µM): 0.468 | relative viability (NCI-H322M; first compound 2.53 µM): 0.516 | relative viability (NCI-H23; first compound 0.08 µM): 0.412 | relative viability (NCI-H23; first compound 0.253 µM): 0.339 | relative viability (NCI-H23; first compound 0.8 µM): 0.451 | relative viability (NCI-H23; first compound 2.53 µM): 0.882 | relative viability (EKVX; first compound 0.08 µM): 0.391 | relative viability (EKVX; first compound 0.253 µM): 0.328 | relative viability (EKVX; first compound 0.8 µM): 0.256 | relative viability (EKVX; first compound 2.53 µM): 0.358

From the supplement of paper PMC10307832
